Here are results for 22 compounds from patent publication US11725012B2, “Imidazo[1,5-a]pyrazine derivatives as PI3K δ inhibitors” (priority 2016, dated 2023).

The pIC50 is −log10 of the IC50, conventionally taken in molar units.

Holding throughout (type): biochemical
Experiment [1] has as its target recombinant PI3K (p110δ/p85α) (Homo sapiens, UniProt O00329). The experiment in a line: PI3Kδ ADP-Glo kinase assay. As for the experimental part: Compounds disclosed herein were tested for inhibition of PI3Kδ kinase activity using commercial ADP-Glo™ Kinase Assay (Promega Corporation) and following the manufacture's instruction. Briefly, recombinant PI3K (p110δ/p85α) enzyme, lipid kinase substrate and a serial dilution of compounds disclosed herein were incubated for 0.5 hr at room temperature. ATP was added to initiate the kinase reaction. After incubation for 1 hr at room temperature, ADP-Glo™ reagent was added to terminate the kinase reaction and deplete the remaining ATP. After incubation for 1 hr at room temperature, kinase detection reagent was added to simultaneously convert ADP to ATP and allow the newly synthesized ATP to be measured using a luciferase/luciferin reaction. After incubation for 0.5 hr at room temperature, the luminescence generated was measured on a PHERAstar FS plate reader (BMG LABTECH), The residual enzyme activity in presence of increasing concentrations of compounds was calculated based on the luminescence. The IC50 for each compound was derived from fitting the data to the four-parameter logistic equation by Graphpad Prism software.
(In general: In ADP-Glo the light output rises with the ADP produced.)

Experiment [2] addresses recombinant PI3K (p110α/p85α) (Homo sapiens, UniProt P42336). In words: PI3Kα ADP-Glo kinase assay.
Another experiment addresses PI3K (p110β/p85α) (Homo sapiens, UniProt P42338). In words: PI3Kβ ADP-Glo kinase assay.
Another experiment deals with PI3K (p110γ) (Homo sapiens, UniProt P48736). The experiment in a line: PI3Kγ ADP-Glo kinase assay.
Setting [3] is: read-out: PI3Kδ Enzyme activity IC50.
Setting [4] is: read-out: PI3Kα Enzyme activity IC50.
Setting [5] is: read-out: PI3Kβ Enzyme activity IC50.
Where [6] appears, read: read-out: PI3Kγ Enzyme activity IC50.

Structures are written as SMILES. pIC50: −log10 of the molar value. Read-outs that look alike come from different tables or passages of the source.

Sequence of PI3K (p110γ) (P48736 whole entry): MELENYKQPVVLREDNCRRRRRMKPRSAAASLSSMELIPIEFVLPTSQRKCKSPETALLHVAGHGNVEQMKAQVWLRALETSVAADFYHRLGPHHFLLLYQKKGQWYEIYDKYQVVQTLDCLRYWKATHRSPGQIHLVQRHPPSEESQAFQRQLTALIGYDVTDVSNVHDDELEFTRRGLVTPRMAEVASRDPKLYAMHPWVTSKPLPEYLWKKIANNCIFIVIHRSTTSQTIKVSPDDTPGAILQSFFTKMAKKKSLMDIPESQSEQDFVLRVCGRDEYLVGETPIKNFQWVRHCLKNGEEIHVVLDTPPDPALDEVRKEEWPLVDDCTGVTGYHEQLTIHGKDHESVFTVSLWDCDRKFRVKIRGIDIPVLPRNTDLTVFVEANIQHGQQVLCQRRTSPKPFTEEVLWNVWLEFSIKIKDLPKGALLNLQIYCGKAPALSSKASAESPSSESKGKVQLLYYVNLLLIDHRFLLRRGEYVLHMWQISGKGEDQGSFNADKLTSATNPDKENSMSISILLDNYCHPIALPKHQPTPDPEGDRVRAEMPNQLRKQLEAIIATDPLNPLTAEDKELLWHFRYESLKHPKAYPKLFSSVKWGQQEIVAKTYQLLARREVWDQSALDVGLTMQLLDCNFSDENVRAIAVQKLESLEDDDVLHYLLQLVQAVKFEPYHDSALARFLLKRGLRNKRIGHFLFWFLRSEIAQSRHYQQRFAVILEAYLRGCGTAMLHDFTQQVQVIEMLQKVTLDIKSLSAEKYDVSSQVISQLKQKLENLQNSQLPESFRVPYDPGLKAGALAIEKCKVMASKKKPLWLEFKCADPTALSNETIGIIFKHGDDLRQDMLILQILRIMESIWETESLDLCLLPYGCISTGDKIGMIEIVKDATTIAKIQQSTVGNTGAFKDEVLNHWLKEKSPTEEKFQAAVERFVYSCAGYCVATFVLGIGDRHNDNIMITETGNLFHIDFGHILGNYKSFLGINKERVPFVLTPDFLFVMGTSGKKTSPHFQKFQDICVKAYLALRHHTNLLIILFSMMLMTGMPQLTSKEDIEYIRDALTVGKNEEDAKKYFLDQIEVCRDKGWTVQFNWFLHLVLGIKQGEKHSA
Sequence of recombinant PI3K (p110δ/p85α) (O00329 whole entry): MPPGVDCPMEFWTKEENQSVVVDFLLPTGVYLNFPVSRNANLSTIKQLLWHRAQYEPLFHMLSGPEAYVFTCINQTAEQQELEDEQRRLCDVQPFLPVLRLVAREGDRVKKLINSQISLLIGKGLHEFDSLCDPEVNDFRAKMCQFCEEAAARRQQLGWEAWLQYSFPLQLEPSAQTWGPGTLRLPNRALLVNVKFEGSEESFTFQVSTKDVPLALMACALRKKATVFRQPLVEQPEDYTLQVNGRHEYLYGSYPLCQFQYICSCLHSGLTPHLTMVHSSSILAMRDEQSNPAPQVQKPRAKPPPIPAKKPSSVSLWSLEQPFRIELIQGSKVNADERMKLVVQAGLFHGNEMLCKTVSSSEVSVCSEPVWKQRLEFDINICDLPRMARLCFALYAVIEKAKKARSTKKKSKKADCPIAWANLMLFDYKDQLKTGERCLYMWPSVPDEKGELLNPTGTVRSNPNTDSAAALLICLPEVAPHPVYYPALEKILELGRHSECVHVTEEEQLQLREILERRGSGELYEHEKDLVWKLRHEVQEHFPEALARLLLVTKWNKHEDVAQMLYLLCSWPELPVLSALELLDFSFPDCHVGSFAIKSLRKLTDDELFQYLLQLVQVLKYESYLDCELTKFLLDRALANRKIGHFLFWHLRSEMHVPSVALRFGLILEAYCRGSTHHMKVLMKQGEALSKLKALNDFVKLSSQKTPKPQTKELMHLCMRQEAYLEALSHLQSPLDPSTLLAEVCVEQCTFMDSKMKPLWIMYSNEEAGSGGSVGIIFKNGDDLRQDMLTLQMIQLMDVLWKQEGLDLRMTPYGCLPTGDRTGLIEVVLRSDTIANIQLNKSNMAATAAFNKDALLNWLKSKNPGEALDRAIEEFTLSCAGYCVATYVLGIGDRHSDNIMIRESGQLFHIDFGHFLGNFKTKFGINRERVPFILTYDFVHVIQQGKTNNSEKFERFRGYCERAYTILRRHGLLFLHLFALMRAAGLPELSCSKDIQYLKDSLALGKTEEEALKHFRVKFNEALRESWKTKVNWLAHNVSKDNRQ
Sequence of recombinant PI3K (p110δ/p85α) (P27986 whole entry partner): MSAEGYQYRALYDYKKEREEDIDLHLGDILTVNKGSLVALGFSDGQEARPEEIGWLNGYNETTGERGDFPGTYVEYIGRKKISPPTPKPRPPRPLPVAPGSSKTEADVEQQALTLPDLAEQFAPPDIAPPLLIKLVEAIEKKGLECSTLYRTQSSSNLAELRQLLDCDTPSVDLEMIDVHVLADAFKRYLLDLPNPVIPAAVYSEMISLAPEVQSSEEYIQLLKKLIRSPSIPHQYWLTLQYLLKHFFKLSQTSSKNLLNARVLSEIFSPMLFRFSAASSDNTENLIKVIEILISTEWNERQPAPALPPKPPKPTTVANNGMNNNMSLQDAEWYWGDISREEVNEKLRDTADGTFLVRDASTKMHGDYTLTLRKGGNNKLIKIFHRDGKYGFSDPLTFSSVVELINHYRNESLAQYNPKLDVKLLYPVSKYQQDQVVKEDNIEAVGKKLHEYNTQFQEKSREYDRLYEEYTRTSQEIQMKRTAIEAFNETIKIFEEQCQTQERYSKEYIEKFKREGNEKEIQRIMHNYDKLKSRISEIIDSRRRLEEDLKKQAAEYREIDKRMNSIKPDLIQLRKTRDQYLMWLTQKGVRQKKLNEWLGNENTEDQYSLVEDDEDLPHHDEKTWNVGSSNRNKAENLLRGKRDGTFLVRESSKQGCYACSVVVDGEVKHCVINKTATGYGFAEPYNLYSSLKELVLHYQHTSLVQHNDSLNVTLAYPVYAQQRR
Sequence of PI3K (p110β/p85α) (P42338 whole entry): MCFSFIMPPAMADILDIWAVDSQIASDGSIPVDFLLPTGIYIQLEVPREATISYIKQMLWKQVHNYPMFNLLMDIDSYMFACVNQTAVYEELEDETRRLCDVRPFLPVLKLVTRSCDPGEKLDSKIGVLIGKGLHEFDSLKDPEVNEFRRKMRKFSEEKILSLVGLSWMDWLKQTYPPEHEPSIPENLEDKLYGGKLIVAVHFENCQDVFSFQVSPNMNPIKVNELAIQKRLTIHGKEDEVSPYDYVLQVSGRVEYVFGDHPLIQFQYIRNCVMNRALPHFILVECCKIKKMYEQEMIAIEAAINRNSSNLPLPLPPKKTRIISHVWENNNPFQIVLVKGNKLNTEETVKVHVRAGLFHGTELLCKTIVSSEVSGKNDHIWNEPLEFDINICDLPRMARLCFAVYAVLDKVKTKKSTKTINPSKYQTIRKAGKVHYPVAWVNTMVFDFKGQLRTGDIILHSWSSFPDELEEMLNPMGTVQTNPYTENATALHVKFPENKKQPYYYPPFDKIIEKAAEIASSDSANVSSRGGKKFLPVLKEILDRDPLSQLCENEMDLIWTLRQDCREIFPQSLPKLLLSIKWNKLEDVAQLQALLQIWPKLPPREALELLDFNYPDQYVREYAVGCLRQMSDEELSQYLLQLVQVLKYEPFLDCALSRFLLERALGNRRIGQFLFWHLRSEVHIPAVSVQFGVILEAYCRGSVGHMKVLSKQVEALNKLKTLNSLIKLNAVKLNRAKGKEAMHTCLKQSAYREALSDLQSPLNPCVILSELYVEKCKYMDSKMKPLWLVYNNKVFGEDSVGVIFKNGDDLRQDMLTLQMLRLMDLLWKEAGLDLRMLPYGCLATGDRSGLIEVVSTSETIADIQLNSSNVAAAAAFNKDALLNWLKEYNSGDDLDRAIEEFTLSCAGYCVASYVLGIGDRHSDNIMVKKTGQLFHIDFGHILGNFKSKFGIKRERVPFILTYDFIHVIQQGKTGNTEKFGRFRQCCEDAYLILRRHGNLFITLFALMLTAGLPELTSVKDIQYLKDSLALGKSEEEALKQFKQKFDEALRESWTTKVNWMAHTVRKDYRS
Sequence of PI3K (p110β/p85α) (P27986 whole entry partner): as the sequence (P27986 whole entry partner) above
Sequence of recombinant PI3K (p110α/p85α) (P42336 whole entry): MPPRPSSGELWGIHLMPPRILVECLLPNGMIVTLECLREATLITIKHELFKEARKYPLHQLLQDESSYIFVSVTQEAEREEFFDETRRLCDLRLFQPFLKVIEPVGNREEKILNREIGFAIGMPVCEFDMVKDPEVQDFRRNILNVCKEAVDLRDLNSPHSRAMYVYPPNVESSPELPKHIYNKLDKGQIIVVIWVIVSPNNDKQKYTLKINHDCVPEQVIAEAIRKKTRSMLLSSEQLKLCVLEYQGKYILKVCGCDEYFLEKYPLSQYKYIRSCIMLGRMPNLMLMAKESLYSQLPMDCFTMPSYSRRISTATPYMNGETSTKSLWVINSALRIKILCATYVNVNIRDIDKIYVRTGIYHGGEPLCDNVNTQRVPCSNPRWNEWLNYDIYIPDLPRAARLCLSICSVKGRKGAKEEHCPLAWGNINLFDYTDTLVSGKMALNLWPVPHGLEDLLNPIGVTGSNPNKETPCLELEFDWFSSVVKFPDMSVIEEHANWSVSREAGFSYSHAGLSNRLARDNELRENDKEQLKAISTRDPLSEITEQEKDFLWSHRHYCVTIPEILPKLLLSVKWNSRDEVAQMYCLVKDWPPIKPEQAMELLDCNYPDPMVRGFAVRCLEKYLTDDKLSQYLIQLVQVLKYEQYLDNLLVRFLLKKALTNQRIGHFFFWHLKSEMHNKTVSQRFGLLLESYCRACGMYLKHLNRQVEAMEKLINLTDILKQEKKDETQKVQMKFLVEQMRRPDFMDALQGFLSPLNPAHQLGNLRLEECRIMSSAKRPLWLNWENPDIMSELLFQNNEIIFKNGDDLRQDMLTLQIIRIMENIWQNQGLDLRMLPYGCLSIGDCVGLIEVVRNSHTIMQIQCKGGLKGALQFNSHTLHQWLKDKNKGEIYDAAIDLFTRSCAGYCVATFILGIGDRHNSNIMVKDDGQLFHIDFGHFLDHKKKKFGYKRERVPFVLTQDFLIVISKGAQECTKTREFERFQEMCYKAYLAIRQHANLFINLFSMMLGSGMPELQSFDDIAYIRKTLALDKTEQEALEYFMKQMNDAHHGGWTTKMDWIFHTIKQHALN
Sequence of recombinant PI3K (p110α/p85α) (P27986 whole entry partner): as the sequence (P27986 whole entry partner) above

Consider `Cc1nc([C@@H](C)c2cc(Cl)c(F)c(-c3ccc(C(=O)NC(C)(C)C(=O)O)nc3)c2OC(C)C)n2ccnc(N)c12` [Compound 70, (S)-2-(5-(3-(1-(8-amino-1-methylimidazo[1,5-a]pyrazin-3-yl)ethyl)-5-chloro-6-fluoro-2-isopropoxyphenyl)picolinamido)-2-methylpropanoic Acid], for which the negative logarithm of the IC50 (pIC50) in experiment [1] (setting [3]) is 9.48; in experiment [2] (setting [4]), 5.36; on PI3K (p110β/p85α) (setting [5]), 6.27; at PI3K (p110γ) (setting [6]) it was 6.08.

Turning to `CCOc1c(C(C)c2nc(Cl)c3c(N)nccn23)cc(Cl)c(C)c1-c1ccc(C)nc1` (stereo not shown) [Compound 8, 1-chloro-3-(1-(5-chloro-2-ethoxy-4-methyl-3-(6-methylpyridin-3-yl)phenyl)ethyl) imidazo[1,5-a]pyrazin-8-amine], the pIC50 was 8.96 in experiment [1] (setting [3]), 5.85 in experiment [2] (setting [4]), 6.46 on PI3K (p110β/p85α) (setting [5]) and 6.59 at PI3K (p110γ) (setting [6]).

As to `Cc1nc([C@@H](C)c2cc(Cl)c(F)c(-c3ccc(C(=O)NC4(C(=O)O)CC4)nc3)c2OC(C)C)n2ccnc(N)c12` [Compound 68, (S)-1-(5-(3-(1-(8-amino-1-methylimidazo[1,5-a]pyrazin-3-yl)ethyl)-5-chloro-6-fluoro-2-isopropoxyphenyl)picolinamido)cyclopropane-1-carboxylic Acid], the negative-log IC50 (pIC50) in experiment [1] (setting [3]) was 9.48; in experiment [2] (setting [4]), 5.47; on PI3K (p110β/p85α) (setting [5]) it was 6.40; at PI3K (p110γ) (setting [6]), 6.02.

As for `CCOc1c([C@H](C)c2nc(Cl)c3c(N)nccn23)cc(Cl)c(F)c1-c1ccc(C(F)(F)F)nc1` [Compound 41A], the negative logarithm of the IC50 (pIC50) is 8.68 in experiment [1] (setting [3]), 5.66 in experiment [2] (setting [4]), 5.92 on PI3K (p110β/p85α) (setting [5]) and 6.14 on PI3K (p110γ) (setting [6]).

For `Cc1nc([C@@H](C)c2cc(Cl)c(F)c(-c3ccc(C(=O)N4CC[C@@H](O)C4)nc3)c2OC(C)C)n2ccnc(N)c12` [Compound 64, (5-(3-((S)-1-(8-amino-1-methylimidazo[1,5-a]pyrazin-3-yl)ethyl)-5-chloro-6-fluoro-2-isopropoxyphenyl)pyridin-2-yl)((R)-3-hydroxypyrrolidin-1-yl)methanone], the pIC50 in experiment [1] (setting [3]) is 9.43; in experiment [2] (setting [4]) it was 5.85; at PI3K (p110β/p85α) (setting [5]) it was 5.80; on PI3K (p110γ) (setting [6]) it was 5.68.

`Cc1nc([C@@H](C)c2cc(Cl)c(F)c(-c3ccc(C(=O)NCCO)nc3)c2OC(C)C)n2ccnc(N)c12` [Compound 62, (S)-5-(3-(1-(8-amino-1-methylimidazo[1,5-a]pyrazin-3-yl)ethyl)-5-chloro-6-fluoro-2-isopropoxyphenyl)-N-(2-hydroxyethyl)picolinamide]: the negative-log IC50 (pIC50) is 9.09 in experiment [1] (setting [3]), 5.28 in experiment [2] (setting [4]), 5.44 at PI3K (p110β/p85α) (setting [5]) and 5.59 on PI3K (p110γ) (setting [6]).

Turning to `Cc1c(Cl)cc(C(C)c2nc(Br)c3c(N)nccn23)c(OC(C)C)c1-c1ccc(C(F)(F)F)nc1` (stereo not shown) [Compound 38, 1-bromo-3-(1-(5-chloro-2-isopropoxy-4-methyl-3-(6-(trifluoromethyl)pyridin-3-yl)phenyl)ethyl)imidazo[1,5-a]pyrazin-8-amine], the negative-log IC50 (pIC50) was 7.72 in experiment [1] (setting [3]), less than 3.70 in experiment [2] (setting [4]), 4.52 on PI3K (p110β/p85α) (setting [5]) and 5.55 at PI3K (p110γ) (setting [6]).

For `CCOc1c(C(C)c2nc(-c3cccc(O)c3)c3c(N)nccn23)cc(Cl)c(C)c1-c1ccc(C(F)(F)F)nc1` (stereo not shown) [Compound 10, 3-(8-amino-3-(1-(5-chloro-2-ethoxy-4-methyl-3-(6-(trifluoromethyl)pyridin-3-yl)phenyl)ethyl)imidazo[1,5-a]pyrazin-1-yl)phenol], the pIC50 in experiment [1] (setting [3]) is 8.04; in experiment [2] (setting [4]) it was 5.49; at PI3K (p110β/p85α) (setting [5]), 5.57; on PI3K (p110γ) (setting [6]) it was 5.82.

Turning to `CCOc1c(C(C)c2nc(Cl)c3c(N)nccn23)cc(Cl)c(C)c1-c1ccc(Cl)nc1` (stereo not shown) [Compound 27, 1-chloro-3-(1-(5-chloro-3-(6-chloropyridin-3-yl)-2-ethoxy-4-methylphenyl)ethyl)imidazo[1,5-a]pyrazin-8-amine], the pIC50 in experiment [1] (setting [3]) is 8.60; in experiment [2] (setting [4]) it was 5.48; at PI3K (p110β/p85α) (setting [5]) it was 5.74; at PI3K (p110γ) (setting [6]) it was 5.85.

Regarding `Cc1nc(C(C)c2cc(Cl)c(F)c(-c3ccc(C#N)nc3)c2OC(C)C)n2ccnc(N)c12` (stereo not shown) [Compound 59, 5-(3-(1-(8-amino-1-methylimidazo[1,5-a]pyrazin-3-yl)ethyl)-5-chloro-6-fluoro-2-isopropoxyphenyl)picolinonitrile], the negative logarithm of the IC50 (pIC50) in experiment [1] (setting [3]) is 8.60; in experiment [2] (setting [4]), 5.00; at PI3K (p110β/p85α) (setting [5]) it was 5.46; on PI3K (p110γ) (setting [6]) it was 5.20.

Consider `Cc1nc([C@@H](C)c2cc(Cl)c(F)c(-c3ccc(C(=O)NC4(CO)CC4)nc3)c2OC(C)C)n2ccnc(N)c12` [Compound 66, (S)-5-(3-(1-(8-amino-1-methylimidazo[1,5-a]pyrazin-3-yl)ethyl)-5-chloro-6-fluoro-2-isopropoxyphenyl)-N-(1-(hydroxymethyl)cyclopropyl)picolinamide], for which the negative logarithm of the IC50 (pIC50) in experiment [1] (setting [3]) was 9.14; in experiment [2] (setting [4]), 5.39; on PI3K (p110β/p85α) (setting [5]), 5.47; at PI3K (p110γ) (setting [6]), 5.59.

Take `CCOc1c([C@H](C)c2nc(Cl)c3c(N)nccn23)cc(Cl)c(C)c1-c1ccc(C(=O)O)nc1` [Compound 12]: the negative logarithm of the IC50 (pIC50) in experiment [1] (setting [3]) is 8.77; in experiment [2] (setting [4]), 5.89; on PI3K (p110β/p85α) (setting [5]), 6.06; at PI3K (p110γ) (setting [6]) it was 7.17.

Regarding `CC(C)Oc1c([C@H](C)c2nc(Cl)c3c(N)nccn23)cc(Cl)c(F)c1-c1ccc(C(=O)O)nc1` [Compound 18A], the pIC50 in experiment [1] (setting [3]) was 9.25; in experiment [2] (setting [4]), 5.34; on PI3K (p110β/p85α) (setting [5]) it was 6.72; on PI3K (p110γ) (setting [6]) it was 6.80.

`CCOc1c(C(C)c2nc(Br)c3c(N)nccn23)cc(Cl)c(C)c1-c1ccc(Cl)nc1` (stereo not shown) [Compound 26, 1-bromo-3-(1-(5-chloro-3-(6-chloropyridin-3-yl)-2-ethoxy-4-methylphenyl)ethyl) imidazo[1,5-a]pyrazin-8-amine]: the pIC50 is 8.85 in experiment [1] (setting [3]), 5.82 in experiment [2] (setting [4]), 6.48 on PI3K (p110β/p85α) (setting [5]) and 6.30 at PI3K (p110γ) (setting [6]).

Consider `CCOc1c(C(C)c2nc(Br)c3c(N)nccn23)cc(Cl)c(C)c1-c1ccc(OC)nc1` (stereo not drawn) [Compound 28, 1-bromo-3-(l-(5-chloro-2-ethoxy-3-(6-methoxypyridin-3-yl)-4-methylphenyl)ethyl)imidazo[1,5-a]pyrazin-8-amine], for which the pIC50 in experiment [1] (PI3Kδ Enzyme activity IC50) was 8.49; in experiment [2] (PI3Kα Enzyme activity IC50), 5.64; against PI3K (p110β/p85α) (PI3Kβ Enzyme activity IC50), 6.03; on PI3K (p110γ) (PI3Kγ Enzyme activity IC50), 6.13.

In the case of `CC(C)Oc1c(C(C)c2nc(Cl)c3c(N)nccn23)cc(Cl)c(Cl)c1-c1ccc(C(F)(F)F)nc1` (stereo not shown) [Compound 37, 1-chloro-3-(1-(4,5-dichloro-2-isopropoxy-3-(6-(trifluoromethyl)pyridin-3-yl)phenyl)ethyl)imidazo[1,5-a]pyrazin-amine], the negative-log IC50 (pIC50) in experiment [1] (setting [3]) is 8.38; in experiment [2] (setting [4]) it was 4.96; on PI3K (p110β/p85α) (setting [5]), 5.72; at PI3K (p110γ) (setting [6]), 6.05.

For `Cc1nc([C@@H](C)c2cc(Cl)c(F)c(-c3ccc(C(N)=NO)nc3)c2OC(C)C)n2ccnc(N)c12` [Compound 60], the negative-log IC50 (pIC50) is 8.80 in experiment [1] (setting [3]), 5.37 in experiment [2] (setting [4]), 5.38 on PI3K (p110β/p85α) (setting [5]) and 5.55 on PI3K (p110γ) (setting [6]).

For `CCCOc1c([C@H](C)c2nc(Cl)c3c(N)nccn23)cc(Cl)c(F)c1-c1ccc(C(F)(F)F)nc1` [Compound 42A], the pIC50 was 8.39 in experiment [1] (setting [3]), 4.59 in experiment [2] (setting [4]), 5.66 on PI3K (p110β/p85α) (setting [5]) and 6.09 on PI3K (p110γ) (setting [6]).

As to `CCOc1c(C(C)c2nc(Cl)c3c(N)nccn23)cc(Cl)c(F)c1-c1ccc(C(F)(F)F)nc1` (stereo not shown) [Compound 41, 1-chloro-3-(1-(5-chloro-2-ethoxy-4-fluoro-3-(6-(trifluoromethyl)pyridin-3-yl)phenyl)ethyl)imidazo[1,5-a]pyrazin-8-amine], the pIC50 in experiment [1] (setting [3]) is 8.49; in experiment [2] (setting [4]), 5.57; on PI3K (p110β/p85α) (setting [5]), 5.51; at PI3K (p110γ) (setting [6]) it was 5.68.

Regarding `Cc1nc([C@@H](C)c2cc(Cl)c(F)c(-c3ccc(C(=O)N4CCC(F)(F)CC4)nc3)c2OC(C)C)n2ccnc(N)c12` [Compound 71], the negative-log IC50 (pIC50) in experiment [1] (setting [3]) is 9.02; in experiment [2] (setting [4]), 5.33; at PI3K (p110β/p85α) (setting [5]), 5.57; on PI3K (p110γ) (setting [6]) it was 5.49.

As to `CCOc1cc(C)c(Cl)cc1C(C)c1nc(Br)c2c(N)nccn12` (stereo not shown) [Compound 50, 1-bromo-3-(1-(5-chloro-2-ethoxy-4-methylphenyl)ethyl)imidazo[1,5-a]pyrazin-8-amine], the negative logarithm of the IC50 (pIC50) in experiment [1] (setting [3]) was 7.77; in experiment [2] (setting [4]), 4.44; on PI3K (p110β/p85α) (setting [5]), 6.17; at PI3K (p110γ) (setting [6]), 5.59.

On to `Cc1nc([C@@H](C)c2cc(Cl)c(F)c(-c3ccc(C(F)(F)F)nc3)c2OC(C)C)n2ccnc(N)c12` [Compound 58, (S)-3-(1-(5-chloro-4-fluoro-2-isopropoxy-3-(6-(trifluoromethyl)pyridin-3-yl)phenyl)ethyl)-1-methylimidazo[1,5-a]pyrazin-8-amine], for which the negative-log IC50 (pIC50) in experiment [1] (setting [3]) was 8.25; in experiment [2] (setting [4]), 4.85; on PI3K (p110β/p85α) (setting [5]), 4.77; at PI3K (p110γ) (setting [6]), 4.89.
